# According to patent US12383579B2, “Materials and methods of using an inhibitor of plasminogen activation to treat anastomotic leak” (THE UNIVERSITY OF CHICAGO, priority 2018, dated 2025):
# “Also recorded” adds a separate entry of the source.
# Assays:
# [1] = molecular target: PLG with uPA and pro-MMP9 (Homo sapiens, UniProt P00747); experiment: Collagen/gelatin degradation by PLG, uPA and pro-MMP9 in a sterile system; assay type: biochemical
# Experimental: (§1) Collagen degradation. Assays were performed per the manufacturer's instructions as previously described with slight modifications (51′). Bacteria were grown overnight in TY. Optical density was normalized to 0.1 through dilution. Bacteria were then incubated with fluorescein-labeled type I collagen, type IV collagen, or gelatin according to the manufacturer's instructions (ThermoFisher), human PLG at 250 nM and TXA. Total reaction volume was 200 L. The incubation proceeded at 37° C. for 5 hours to allow for bacterial attachment to collagen and PLG binding. uPA was added and the incubation proceeded for an additional hour. Change in fluorescence over time at 480/520 nm was determined kinetically over the initial 30 minutes of the reaction.
# [2] = tested on: RAW macrophages stimulated by V583; experiment: Gelatin degradation by V583-stimulated RAW macrophages; assay type: cell-based, murine; settings: 10 mM TXA
# [3] = tested on: E. faecalis; experiment: Intrinsic bacterial type IV collagen degradation in the absence of PLG; assay type: biochemical, Enterococcus faecalis
# Experimental: as §1
# [4] = tested on: polymicrobial communities cultured from the postoperative mouse colon; experiment: Plasmin activity assay of polymicrobial communities from postoperative mouse colon; assay type: biochemical; settings: 10 mM TXA, exogenous PLG and uPA
# Experimental: Polymicrobial communities collected from homogenized tissue and luminal contents were cultured aerobically in nonspecific media and underwent plasmin activity assays in the presence of human PLG and uPA. […] (*p<0.05, ANCOVA). Error bars indicate means±SD. All data are representative of three separate experiments, each run in triplicate.
# Plasminogen/uPA activity. Plasmin activity assays were performed as previously described with minor modifications, and fluorescence data was analyzed per the manufacturer's instructions (50′). Incubation times were optimized for bacteria at low optical density to limit internal filter effects in fluorescence-based assays. Bacteria (when included) were grown overnight in TY media. […] A final concentration of 6 M fluorogenic substrate specific for plasmin (H-D-Val-Leu-Lys-AFC, AnaSpec) was added immediately prior to a kinetic fluorescent read with excitation wavelength 380 nm and emission wavelength 500 nm. Reads were conducted every 15 to 30 seconds over the course of 30 minutes. […] When assays were performed in human plasma, fluorescence was read for 120 minutes total.
# Plasmin activity assays were measured in polymicrobial communities cultured aerobically from homogenized luminal contents or tissue following anastomotic surgery without antibiotics and without introduction of a leak-inducing pathogen (e.g., E. faecalis, P. aeruginosa, S. marcescens). […]
# [5] = tested on: RAW macrophages; experiment: PLG activation by RAW macrophages stimulated with E44 conditioned media; assay type: cell-based, murine; settings: TXA 10 mM, PLG 250 nm, 4 hours
# Experimental: (A), E. faecalis E44 was grown in TY media overnight, and cell-free conditioned media (E44s) was applied to RAW macrophages for 4 hours. PLG, 250 nm, was included in the reaction. TXA, 10 mM, was added when needed. PLG activation was measured by fluorogenic substrate cleavage. “RAW” column is naïve RAW. *p<0.05, n=6/group. (B), Conditioned media after co-interaction of macrophages with E. faecalis E44 (named RAW/E44s) was applied to naïve RAW macrophages for 4 hours. PLG, 250 nm, and MMP9, 1 nM, were in all reactions. TXA, 10 mM, was added when needed. “RAW+RAWs” column is naïve macrophages incubated with conditioned media of RAW macrophages (no E. faecalis E44). *p<0.05, n=6/group.
# RAW 264.7 or J774 murine macrophages were incubated at 37° C. and 5% CO2 in Dulbecco's modified eagle media (DMEM) with 10% fetal bovine serum, penicillin/streptomycin and antifungals during growth. For plasmin activity assays, cells were plated at 10^4 cells/well on a 96-well plate in phenol-free DMEM with 1% FBS. Added bacteria were in low volumes of TY.
# RAW 267.4 murine macrophages are co-incubated with E44, reasoning that bacteria and macrophages regularly co-interact in healing gut tissue. […] To confirm the expectation, naïve macrophages were stimulated with conditioned media from E44 overnight culture.
# [6] = tested on: E. faecalis V583 and FITC-PLG at the anastomotic site; experiment: Co-localization of E. faecalis and PLG at the anastomotic site; assay type: in vivo, mice; settings: TXA enema POD 1, 2, 3; POD3
# Excerpt: Co-localization of E. faecalis and PLG: Mice underwent anastomotic surgery with postoperative introduction of E. faecalis V583. The mice received post-operative TXA or vehicle enemas as described herein. They received a systemic (intra-peritoneal) injection of 100 L 4 M FITC-labeled PLG one hour prior to sacrifice. Anastomotic tissue was collected in sterile fashion and cryosectioned. Slides were stained with 4′,6-diamidino-2-phenylindole (DAPI) for colonic mucosa. For visualization of microbial organisms, the inventors used probes designed by Miacom Diagnostics, which use a fluorescence in situ hybridization (FISH) beacon-based technology. An E. faecalis-specific probe was labeled with Alexa Fluor 647. Staining was performed overnight per the manufacturer's protocol. Confocal microscopy was performed on a Leica SP5 II AOBS tandem scanner spectral confocal system on a DMI6000 microscope and controlled by LASAF software (version 2.8.3). […] channels were collected at each location using sequential excitation (excitation: 405, 488, and 633; emission: 412-452, 495-537, and 654-755 nm pass bands) on either photomultiplier or HyD hybrid detectors. […]
# Co-localization of E. faecalis and plasminogen at the anastomotic site. […] Mice undergoing E. faecalis-mediated anastomotic leak were administered FITC-labeled PLG (as observed by green fluorescence) systemically. […]
# [7] = molecular target: T1, P. aeruginosa MPAO1-P2 plasminogen activation (Homo sapiens, UniProt P00747); experiment: PLG activation by P. aeruginosa; assay type: biochemical; settings: TY 1:1 with PBS (10 mM phosphate), or water plus 10 mM TXA, versus water alone
# T1 construct: 250 nM human glu-plasminogen (Haematologic technologies); purchased Haematologic technologies
# T1 sequence (P00747 20-810): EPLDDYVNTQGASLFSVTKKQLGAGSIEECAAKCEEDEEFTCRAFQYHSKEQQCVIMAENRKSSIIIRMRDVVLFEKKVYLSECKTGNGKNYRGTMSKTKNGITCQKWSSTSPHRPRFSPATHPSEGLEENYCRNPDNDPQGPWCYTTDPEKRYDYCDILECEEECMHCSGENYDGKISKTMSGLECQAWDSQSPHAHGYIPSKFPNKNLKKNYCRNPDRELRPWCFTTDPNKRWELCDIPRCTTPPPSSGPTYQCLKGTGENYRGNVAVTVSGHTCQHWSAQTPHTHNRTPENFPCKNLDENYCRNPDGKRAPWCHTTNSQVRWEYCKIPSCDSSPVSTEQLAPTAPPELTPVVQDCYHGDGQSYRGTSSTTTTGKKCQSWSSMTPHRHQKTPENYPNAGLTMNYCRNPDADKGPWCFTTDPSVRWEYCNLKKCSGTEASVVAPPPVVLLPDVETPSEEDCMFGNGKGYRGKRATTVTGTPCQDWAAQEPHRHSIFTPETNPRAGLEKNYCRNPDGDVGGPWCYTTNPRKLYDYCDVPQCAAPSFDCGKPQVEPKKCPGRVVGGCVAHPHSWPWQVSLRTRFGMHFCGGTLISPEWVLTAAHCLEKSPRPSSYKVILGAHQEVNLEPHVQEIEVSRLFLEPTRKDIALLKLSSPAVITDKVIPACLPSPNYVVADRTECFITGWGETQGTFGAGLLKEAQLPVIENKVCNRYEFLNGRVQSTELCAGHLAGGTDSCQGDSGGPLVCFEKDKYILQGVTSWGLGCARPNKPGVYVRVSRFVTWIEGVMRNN
# Experimental: Plasminogen/uPA activity. Plasmin activity assays were performed as previously described with minor modifications, and fluorescence data was analyzed per the manufacturer's instructions (50′). Incubation times were optimized for bacteria at low optical density to limit internal filter effects in fluorescence-based assays. Bacteria (when included) were grown overnight in TY media. OD600 was normalized by dilution to 0.1, equivalent to 8×10^7 CFU/mL. Samples at OD 0.1 were diluted 1:10 in the final reaction through the addition of media and dissolved substrates. Bacteria were incubated with 250 nM human glu-plasminogen (Haematologic technologies) for two hours at 37° C. TXA (Fisher) was added concomitantly with PLG. A final concentration of 4 nM uPA (Biovision) or pro-uPA (Biovision) was added and incubation proceeded for 20 minutes. A final concentration of 6 M fluorogenic substrate specific for plasmin (H-D-Val-Leu-Lys-AFC, AnaSpec) was added immediately prior to a kinetic fluorescent read with excitation wavelength 380 nm and emission wavelength 500 nm. Reads were conducted every 15 to 30 seconds over the course of 30 minutes. For assays of uPA activity, PLG was omitted from the incubation and a substrate specific to uPA (Z-Gly-Gly-Arg-AMC, Bachem) was used. When assays were performed in human plasma, fluorescence was read for 120 minutes total. […]
# [8] = tested on: type IV collagen degradation by collagenolytic E. faecalis E44; experiment: Collagen degradation by E. faecalis E44 with PLG, uPA and MMP9; assay type: biochemical, Enterococcus faecalis; settings: fluorescently tagged type IV collagen
# Experimental: Collagen degradation. Assays were performed per the manufacturer's instructions as previously described with slight modifications (51′). Bacteria were grown overnight in TY. Optical density was normalized to 0.1 through dilution. […] Total reaction volume was 200 L. The incubation proceeded at 37° C. for 5 hours to allow for bacterial attachment to collagen and PLG binding. uPA was added and the incubation proceeded for an additional hour. Change in fluorescence over time at 480/520 nm was determined kinetically over the initial 30 minutes of the reaction.
# The role of activated plasminogen (PLG) in anastomotic leak. […] Co-incubation of E44 with murine macrophages ([…]) was performed for studies involving conditioned media. Twenty-week-old male C57BL/6 mice underwent the validated model of E44-induced AL that includes preoperative antibiotics to defaunate the colon, surgical transection and anastomosis of the colon and introduction of E44 in 10% glycerol to the surgical site via rectal enema on postoperative day 1. […] Anastomotic healing was assessed blindly using a validated anastomotic healing score (AHS): 0=uncomplicated healing, 1=flimsy adhesions, 2=dense adhesions, 3=abscess, and 4=gross anastomotic disruption. AL was defined as AHS 3 or above.
# [9] = tested on: E. faecalis; experiment: E. faecalis growth (OD600 over four hours); assay type: cell-based, Enterococcus faecalis; settings: TXA added to culture medium
# Excerpt: FIG. 44. […] Figures are representative of three separate experiments, each run in triplicate. Error bars indicate means±SD.
# PLG with uPA and pro-MMP9, sequence (P00747 20-810 limits assumed): as the sequence (P00747 20-810) above
smiles,measurement,setting,value
"NC[C@H]1CC[C@H](C(=O)O)CC1 [TXA, tranexamic acid]",gelatin / type IV collagen degrading activity of PLG with uPA and pro-MMP9,[1],inhibited in a concentration-dependent manner
same,gelatin degradation in V583-stimulated macrophages,"[2]; PLG, uPA, 6 hours, no added pro-MMP9",significantly inhibited gelatin degradation
same,gelatin degradation in V583-stimulated macrophages,[2]; with added pro-MMP9,significantly diminished
same,intrinsic bacterial type IV collagen degradation activity,[3],no effect
same,plasmin-activating activity of polymicrobial communities,[4],significantly inhibited
same,PLG activation by macrophages stimulated with E44 conditioned media,[5],This effect was inhibited
same,co-localization of V583 with FITC-PLG at the anastomotic site,[6],effectively prevented co-localization
same,penetration of V583 into the colonic mucosa,[6],diminished penetration of V583 into the colonic mucosa
same,PLG activation by P. aeruginosa,[7],significantly attenuated
same,PLG activation by P. aeruginosa,[7]; listed as Tranexamic acid,inhibits
same,"collagen degradation by E44 with PLG, uPA and MMP9",[8],inhibited by TXA in a concentration-dependent fashion; also recorded: collagen degradation was inhibited
same,"collagen degradation by E44 with PLG, uPA and MMP9",[8]; listed as tranexamic acid,inhibited in a concentration-dependent manner
same,bacterial growth (change in OD600 over four hours),[9],no effect on bacterial growth
